Target: Sentrin-specific protease 6 (Homo sapiens) (UniProt Q9GZR1)
Assay: SENP6 protease inhibitors, SAR follow-up, biochemical, luminescence, set 2 (AID 588598)
Conditions: recombinant SENP6, Z-RLRGG-aminoluciferin cleavage, 30 min

Sequence of Sentrin-specific protease 6 (Homo sapiens) (Q9GZR1 628-1112 limits assumed): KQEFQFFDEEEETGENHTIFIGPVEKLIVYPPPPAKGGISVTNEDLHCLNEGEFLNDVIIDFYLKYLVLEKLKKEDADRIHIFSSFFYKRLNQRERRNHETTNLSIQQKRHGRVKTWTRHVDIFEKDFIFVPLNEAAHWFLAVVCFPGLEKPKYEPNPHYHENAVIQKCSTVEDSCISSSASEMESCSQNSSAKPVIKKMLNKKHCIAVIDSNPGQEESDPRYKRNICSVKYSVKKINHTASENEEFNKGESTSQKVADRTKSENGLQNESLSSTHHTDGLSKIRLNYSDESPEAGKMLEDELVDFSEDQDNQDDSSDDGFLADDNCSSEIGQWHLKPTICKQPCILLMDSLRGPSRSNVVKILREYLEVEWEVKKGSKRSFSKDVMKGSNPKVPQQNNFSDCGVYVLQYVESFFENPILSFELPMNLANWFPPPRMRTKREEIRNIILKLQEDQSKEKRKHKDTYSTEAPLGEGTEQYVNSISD

`O=C(Nc1nc2ccc(Cl)cc2s1)c1cccs1` was tested, and the IC50 was 1300 nM.
